Experimental data as given in patent publication US12584173B2, “Methods for disease treatment and drug discovery” (The Scripps Research Institute, priority 2018, dated 2026).

Assays:
CFTR = CFTR (Homo sapiens, UniProt P13569, DEL508-508); conditions: cited from earlier work
NPC1 [1] = assay: NPC1 variant trafficking index (TrIdx, endo H resistance) in NPC1 null cell lines; format: cell-based, human
Excerpt: (§1) NPC1 is composed of multiple domains that harbor the different variants contributing to disease. Given the heterozygous allelic composition of most NPC1 primary fibroblasts that compromise interpretation of the impact of a specific allele on disease progression, we silenced NPC1 expression with shRNA to generate stable null cell lines. These null cell lines were transiently transfected with a sparse collection of plasmids that each harbor one of 48 distinct NPC1 disease-associated variants in NPC1 distributed among the various NPC1 domains. […] We binned this sparse collection of variants into 4 functional classes (Cass I-IV). Class I variants lack polypeptide expression in response to non-sense and/or splicing (truncation) mutations (null), Class II missense variants are largely ER retained (defined as <0.2 TrIdx), Class III missense variants show an intermediate level of trafficking (defined as 0.2 to 0.5 TrIdx) and Class IV missense variants have a level of trafficking >0.5 TrIdx indicating significant export from the ER. […] The impact of cholesterol (ChoI) storage in the LE/LY for each of these variants was measured using automated high content screening image analysis based on filipin staining.
(§2) Each of the 48 NPC1 variants was examined for the impact of SAHA on both TrIdx and ChoI in the LE/LY. […] The effects of HDACi were NPC1-dependent as restoration of ChoI homeostasis by SAHA was not observed in fibroblasts lacking NPC1 and in null cell-lines lacking NPC1.

NPC1 [2] = assay: cholesterol storage in LE/LY by filipin staining, high content image analysis; format: cell-based, human
Excerpt: as §1, §2

NPC1 [3] = conditions: cited from earlier work

Chain of CFTR (P13569 with tags, fused parts or gaps DEL508-508): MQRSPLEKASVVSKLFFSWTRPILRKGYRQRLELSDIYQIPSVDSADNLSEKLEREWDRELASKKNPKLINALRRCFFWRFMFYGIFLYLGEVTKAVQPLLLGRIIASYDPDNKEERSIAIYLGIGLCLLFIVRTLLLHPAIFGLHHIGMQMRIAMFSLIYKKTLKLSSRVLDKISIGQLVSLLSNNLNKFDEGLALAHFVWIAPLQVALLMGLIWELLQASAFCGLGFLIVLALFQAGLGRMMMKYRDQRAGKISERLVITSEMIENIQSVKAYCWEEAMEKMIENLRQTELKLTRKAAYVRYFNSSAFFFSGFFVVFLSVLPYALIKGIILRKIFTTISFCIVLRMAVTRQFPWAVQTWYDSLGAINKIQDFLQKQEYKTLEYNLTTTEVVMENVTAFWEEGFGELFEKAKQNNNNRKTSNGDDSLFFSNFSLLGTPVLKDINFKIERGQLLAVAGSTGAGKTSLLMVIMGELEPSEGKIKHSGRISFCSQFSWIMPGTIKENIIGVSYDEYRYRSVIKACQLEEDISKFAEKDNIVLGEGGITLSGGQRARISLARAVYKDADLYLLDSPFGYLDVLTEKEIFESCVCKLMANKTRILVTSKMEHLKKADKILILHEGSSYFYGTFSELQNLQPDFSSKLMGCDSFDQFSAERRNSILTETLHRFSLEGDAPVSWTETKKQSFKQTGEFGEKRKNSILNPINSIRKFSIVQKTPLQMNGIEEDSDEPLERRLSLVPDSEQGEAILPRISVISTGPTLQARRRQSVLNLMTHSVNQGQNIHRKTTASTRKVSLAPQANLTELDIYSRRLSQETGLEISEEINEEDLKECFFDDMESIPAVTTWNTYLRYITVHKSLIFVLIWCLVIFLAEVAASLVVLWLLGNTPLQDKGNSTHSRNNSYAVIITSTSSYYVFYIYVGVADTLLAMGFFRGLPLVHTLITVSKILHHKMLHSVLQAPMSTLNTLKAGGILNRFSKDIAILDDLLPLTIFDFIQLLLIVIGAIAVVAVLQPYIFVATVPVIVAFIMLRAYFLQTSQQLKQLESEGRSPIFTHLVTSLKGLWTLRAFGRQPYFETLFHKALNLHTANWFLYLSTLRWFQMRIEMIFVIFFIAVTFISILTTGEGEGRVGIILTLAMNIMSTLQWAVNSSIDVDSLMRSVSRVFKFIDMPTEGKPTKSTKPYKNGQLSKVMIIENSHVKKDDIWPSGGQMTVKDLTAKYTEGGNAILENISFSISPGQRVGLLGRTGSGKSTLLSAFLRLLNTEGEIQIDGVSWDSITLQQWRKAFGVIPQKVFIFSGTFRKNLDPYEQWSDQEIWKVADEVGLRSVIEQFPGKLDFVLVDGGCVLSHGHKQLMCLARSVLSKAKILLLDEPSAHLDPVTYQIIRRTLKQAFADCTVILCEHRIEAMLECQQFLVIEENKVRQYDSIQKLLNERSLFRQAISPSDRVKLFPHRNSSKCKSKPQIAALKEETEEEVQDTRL

SMILES	effect on export or function of F508del (CFTR)	TrIdx (NPC1 [1]; NPC1 H510P)	TrIdx (NPC1 [1]; NPC1 P532L)	TrIdx (NPC1 [1]; NPC1 R518Q)	TrIdx class after treatment (NPC1 [1]; majority of NPC1 variants with a TrIdx<0.2)	trafficking (NPC1 [1]; variants involved in the predicted path of cholesterol flow, TM region)	ChoI (NPC1 [2]; NPC1 H510P)	ChoI (NPC1 [2]; NPC1 P532L)	cholesterol homeostasis (NPC1 [2]; NPC1 R518Q)	response to treatment (NPC1 [2]; NPC1 V950M, S954L, P1007A and T1036M (CLD5, late age of neurological onset cluster))	restoration of ChoI homeostasis (NPC1 [2]; fibroblasts lacking NPC1 and null cell-lines lacking NPC1)	cholesterol homeostasis of NPC1 variants (NPC1 [2]; in all domains)	cholesterol storage state (NPC1 [2]; variants along the predicted cholesterol flow path (R1077Q, Y1088C, W1145R, Y634C, P691S, L1191F))	correction of the I1061T phenotype (protein stabilized for export to LE/LY, improved cholesterol homeostasis) (NPC1 [3])
CC(C)(C)c1cc(C(C)(C)C)c(NC(=O)c2c[nH]c3ccccc3c2=O)cc1O [Ivacaftor]	no effect	–	–	–	–	–	–	–	–	–	–	–	–	–
O=C(CCCCCCC(=O)Nc1ccccc1)NO [SAHA, Vorinostat]	–	inability of SAHA to improve	improved	large improvement	at least a Class III TrIdx	not changed	lack of significant correction	improved	does not significantly improve	highly responsive	not observed	significantly restored	improved to level of WT or even better than WT	correct the I1061T phenotype
